The source of these data is patent publication US9433595B2, “Phytoestrogenic compositions for preventing or treating symptoms associated with menopause” (Natural Endotech Co., Ltd., priority 2008, dated 2016).

Molecules are shown by their SMILES.

This experiment concerns SaOS-2 cells. In words: Estrogen-specific ALP (alkaline phosphatase) induction in SaOS-2 osteoblast cells. The experiment is classed as cell-based. To be noted: conclusion drawn from ALP induction in SaOS-2 cells. As for the experimental part: To verify the effect of the compound of the present invention, non-reproductive tract target tissue response was carried out for measuring estrogenecity. […]
In this regard, the estrogenic activity of the compounds of the experimental groups as described above in the Example 1 was analyzed using SaOS-2 cells in this study.
For experiments, SaOS-2 cell line was purchased from Korean Type Culture Collection (KTCC). […] Thereafter, 50 μl of cell lysis buffer (100 mM Tris, 100 mM NaCl, 1 mM EDTA) was added to the culture media of each well and then, 150 μl of 30 mM p-nitrophenyl phosphate (Merk, Germany) was thoroughly mixed with shaking, followed by measuring the absorbance at 405 nm for 10 min at an interval of 50 sec. ALP induction was calculated as follows: % induction=[(Slopesample)/(Slope17β-estradiol)]×100. […]

Take `O=C(O)/C=C/c1ccccc1` [cinnamic acid]: the estrogenic activity result was “remarkable estrogenic activity”. In the case of `COC(=O)C1=CO[C@@H](O[C@H]2O[C@@H](CO)[C@H](O)[C@@H](O)[C@@H]2O)C2C1[C@H](O)C[C@]2(C)O` (some centres unmarked) [shanzhiside methylester], the estrogenic activity entry was “remarkable estrogenic activity”.
